{"source": "patent US20250186470A1", "about": "“Compositions and Methods Using Lactulose for Treating Disease” (THE UNIVERSITY OF CHICAGO, priority 2023, published 2025)", "format_in_all_cases": "in vivo, human", "key": {"Enterococcus": {"system": "Enterococcus", "experiment": "Fecal shotgun metagenomics of hospitalized liver disease patients stratified by lactulose exposure: Enterococcus abundance", "settings": "for Regression estimate, association with Enterococcus abundance: Table S1, factors lactulose, PPI, stool consistency, antibiotics"}, "SBP": {"system": "SBP", "experiment": "Spontaneous bacterial peritonitis (SBP) in liver disease patients paired with fecal samples, logistic regression", "from_the_text": "(§1) FIGS. 12A-12E: Bifidobacteria expansion and associated metabolite production are associated with decreased incidence of spontaneous bacterial peritonitis (SBP). (A) Flow diagram depicting number of samples and number of patients that were filtered out at each step of analysis for SBP. (B) Taxonomic relative abundance by shotgun metagenomics of stool samples paired to ascites samples is plotted in order of decreasing Bifidobacteria abundance from left to right. Underneath each stool sample is the clinical diagnosis associated with an ascites sample (SBP (red) or not SBP (green)). (C) Volcano plot of normalized metabolite concentrations. P-values were calculated using a two-tailed Wilcoxon rank sum test and are corrected for multiple comparisons using the Benjamini-Hochberg procedure. Values with log 2 fold-change >1 (corresponding to a 2-fold change with a p-value <0.05) were considered significant. (D and E) Quantitative levels for butyrate, propionate, lithocholic acid, and alloisolithocholic acid were compared from samples associated and not associated with SBP. Units for SCFA are mM, and units for BA derivatives are in μg/mL. Each point represents a single sample. Median and interquartile range are indicated by the horizontal line and box, respectively. […] Statistical comparisons between individual groups were analyzed using a two-tailed Wilcoxon rank sum test. […]"}, "bacteremia": {"system": "bacteremia", "experiment": "Bacteremia in liver disease patients paired with fecal samples, logistic regression", "from_the_text": "as §1, with “FIGS. 13A-13E:” for “FIGS. 12A-12E:”, “of bacteremia).” for “of spontaneous bacterial peritonitis (SBP).”, “for bacteremia.” for “for SBP.”, “to blood cultures” for “to ascites samples”, “with a given blood culture (bacteremia” for “with an ascites sample (SBP”, “or no bacteremia” for “or not SBP”"}, "[1]": {"settings": "fecal samples from lactulose-treated patients"}}}
{"smiles": "OC[C@H]1O[C@@H](O[C@@H]2[C@@H](CO)OC(O)(CO)[C@H]2O)[C@H](O)[C@@H](O)[C@H]1O", "note": "(mixture of isomers) [Lactulose, lactulose]", "values": [{"measurement": "Regression estimate, association with Enterococcus abundance", "setting": "Enterococcus", "result": 0.11}, {"measurement": "Regression estimate, association with Enterococcus abundance", "setting": "Enterococcus; listed as lactulose", "result": "positively associates"}, {"measurement": "Enterococcus abundance, mean", "setting": "Enterococcus; [1]", "result": 19.4, "unit": "%"}, {"measurement": "Enterococcus abundance, median", "setting": "Enterococcus; [1]", "result": 0.9, "unit": "%"}, {"measurement": "Enterococcus abundance, range", "setting": "Enterococcus; [1]", "result": "0.0-100%"}, {"measurement": "Samples with lactulose exposure among sbp", "setting": "SBP; N = 21", "result": "(76%)"}, {"measurement": "Samples with lactulose exposure among no sbp", "setting": "SBP; N = 101", "result": "(79%)"}, {"measurement": "Samples with lactulose exposure among bacteremia", "setting": "bacteremia; N = 19", "result": "(32%)"}, {"measurement": "Samples with lactulose exposure among no bacteremia", "setting": "bacteremia; N = 227", "result": "(65%)"}]}
